Entries after “also recorded” stand apart in the source; their conditions may differ.
What was measured:
[1] = system: patients with opioid use disorder (DSM-5 moderate to severe) using opioids for at least three months; assay: Medical chart review of a fifteen-patient outpatient neurology cohort whose opioids were replaced with low-dose Lyrica (pregabalin); format: in vivo, human
Protocol: Summary of Experimental Results: Over the span of several years, the present inventor, who is a practicing neurologist, tested various different drugs at varying doses in an attempt to assist patients in their outpatient general neurological practice with cessation of opioid use. Through extensive experimentation, the physician discovered that 25 mg of Lyrica (pregabalin) T.I.D. successfully replaced opioids in a few of their patients, they subsequently expanded their research to other patients.
The charts for the fifteen (15) patients of this cohort were evaluated to ascertain the date that pregabalin was initiated, and the starting dose; the pregabalin dose as of the last available medical record; concomitant pain/CNS medications and concomitant non-pain/CNS medications; records of opioid use, type of opioid and dose (when available); and the temporal relationship between starting pregabalin and no longer requiring opioids. The medications in patient charts were compared with the accompanying medication list for each patient. As these were medical charts, the review was conducted to the extent that information was available.
Diagnosis of opioid use disorder: As a part of the medical chart review, the investigating physician assessed the fifteen (15) patients against the DSM-5 diagnostic criteria for OUD, defined “ . . . as a problematic pattern of opioid use leading to clinically significant impairment or distress, as manifested by at least two (2) pre-defined symptoms.” These criteria include eleven symptoms or behaviors occurring within a 12-month period. A diagnosis of mild OUD requires the presence of 2-3 symptoms, moderate 4-5 symptoms, and severe 6 or more symptoms. Of the fifteen (15) patients, seven (7) had scores in the moderate range and eight (8) had scores in the severe range.

[2] = system: neuropathic pain; details: doses of up to 150 mg a day; cited from earlier work

In the case of CC(C)C[C@H](CN)CC(=O)O [pregabalin, (S)-(+)-3-aminomethyl-5-methyl-hexanoic acid], the “patients for whom opioids were successfully replaced” value ([1]; 25 mg Lyrica (pregabalin) T.I.D., patients had been using opioids for at least three months, cohort of 15) is reported as 15 patients, the cravings for opioids ([1]; each of the fifteen patients, low-dose pregabalin) is reported as “complete cessation of cravings for opioids” and the “side effects or withdrawal symptoms” value ([1]; fifteen patients, opioids replaced with low-dose pregabalin) is reported as “no reported side effects or withdrawal symptoms; also recorded: none of the fifteen (15) patients experienced side effects or withdrawal symptoms”. For the same compound, the “patients who decreased their opioids temporally related to (after) starting pregabalin” value ([1]; of fifteen patients) was 2 patients, the “patients who stopped or decreased their opioids temporally related to (after) starting pregabalin” value ([1]; of fifteen patients, chart review) was ≥ 7 patients and the “patients who stopped their opioids temporally related to (after) starting pregabalin” value ([1]; of fifteen patients, one continued tramadol 50 mg Q.I.D. prn) was 5 patients. The “patients who elected to return to opioids for other reasons” value ([1]; of the fifteen-patient cohort, also effectively cured of cravings) was 2 patients, the “remaining patients, none of whom returned to opioids within the observation period” value ([1]; of the fifteen-patient cohort, opioids replaced with low doses of Lyrica (pregabalin)) was 13 patients and the “patients started on pregabalin who stopped or decreased their use of opioids (total)” value ([1]; of the patient charts reviewed (fifteen)) was ≥ 11 patients. For the same compound, the “patients who stopped their opioids while on pregabalin, relative timing not definitively established” value ([1]; of the remaining eight patients) was 4 patients and the “efficacy for the indicated treatment of neuropathic pain” value [2] was “consistently ineffective”.

— patent publication US20240139135A1, “[…] TREATMENT OF OPIOID USE DISORDER” (THE TRUSTEES OF INDIANA UNIVERSITY, priority 2019, published 2024)
